Results: patent US20250333424A1, “ANTIVIRAL COMPOUNDS” (Gilead Sciences, Inc., priority 2024, published 2025)

tested on: monocytic THP1 cells infected with HIV VSV-G pseudotyped GFP-NEF reporter virus; assay: cells; format: cell-based; conditions: Human immunodeficiency virus 1, THP-1, 24 h

Compound	EC50 [nM]
Cc1cc(/C=C/C#N)cc(C)c1Oc1nc(NC23CC(C#N)(C2)C3)nc2c1nc(C)n2CCC#N [Compound 57, (E)-3-((9-(2-cyanoethyl)-6-(4-(2-cyanovinyl)-2,6-dimethylphenoxy)-8-methyl-9H-purin-2-yl)amino)bicyclo[1.1.1]pentane-1-carbonitrile]	147
Cc1cc(/C=C/C#N)cc(C)c1Oc1nc(NC23CC(C#N)(C2)C3)nc2nc(-c3cc[nH]n3)[nH]c12 [Compound 63, (E)-3-((6-(4-(2-cyanovinyl)-2,6-dimethylphenoxy)-8-(1H-pyrazol-3-yl)-7H-purin-2-yl)amino)bicyclo[1.1.1]pentane-1-carbonitrile]	62.8
Cc1cc(/C=C/C#N)cc(C)c1Oc1nc(NC23CC(C#N)(C2)C3)nc2nc(-c3ccn(C)n3)[nH]c12 [Compound 65, (E)-3-((6-(4-(2-cyanovinyl)-2,6-dimethylphenoxy)-8-(1-methyl-1H-pyrazol-3-yl)-7H-purin-2-yl)amino)bicyclo[1.1.1]pentane-1-carbonitrile]	132
Cc1cc(/C=C/C#N)cc(C)c1Oc1nc(NC23CC(C#N)(C2)C3)nc2nc(-c3cn[nH]c3)[nH]c12 [Compound 66, (E)-3-((6-(4-(2-cyanovinyl)-2,6-dimethylphenoxy)-8-(1H-pyrazol-4-yl)-7H-purin-2-yl)amino)bicyclo[1.1.1]pentane-1-carbonitrile]	298
Cc1cc(/C=C/C#N)cc(C)c1Oc1nc(NC23CC(C#N)(C2)C3)nc2nc(Nc3c(C)noc3C)[nH]c12 [Compound 67, (E)-3-((6-(4-(2-cyanovinyl)-2,6-dimethylphenoxy)-8-((3,5-dimethylisoxazol-4-yl)amino)-7H-purin-2-yl)amino)bicyclo[1.1.1]pentane-1-carbonitrile]	231
Cc1cc(/C=C/C#N)cc(C)c1Oc1nc(NC23CC(C#N)(C2)C3)nc2nc(Nc3ccccn3)[nH]c12 [Compound 68, (E)-3-((6-(4-(2-cyanovinyl)-2,6-dimethylphenoxy)-8-(pyridin-2-ylamino)-7H-purin-2-yl)amino)bicyclo[1.1.1]pentane-1-carbonitrile]	273
Cc1cc(/C=C/C#N)cc(C)c1Oc1nc(NC23CC(C#N)(C2)C3)nc2nc(Nc3cccnc3)[nH]c12 [Compound 69, (E)-3-((6-(4-(2-cyanovinyl)-2,6-dimethylphenoxy)-8-(pyridin-3-ylamino)-7H-purin-2-yl)amino)bicyclo[1.1.1]pentane-1-carbonitrile]	496
Cc1cc(/C=C/C#N)cc(C)c1Oc1nc(NC23CC(C#N)(C2)C3)nc2nc(Nc3ccccc3)[nH]c12 [Compound 70, (E)-3-((6-(4-(2-cyanovinyl)-2,6-dimethylphenoxy)-8-(phenylamino)-7H-purin-2-yl)amino)bicyclo[1.1.1]pentane-1-carbonitrile]	415
Cc1cc(/C=C/C#N)cc(C)c1Oc1nc(NC23CC(C#N)(C2)C3)nc2nc(-c3cnoc3)[nH]c12 [Compound 71, (E)-3-((6-(4-(2-cyanovinyl)-2,6-dimethylphenoxy)-8-(isoxazol-4-yl)-7H-purin-2-yl)amino)bicyclo[1.1.1]pentane-1-carbonitrile]	274
Cc1cc(/C=C/C#N)cc(C)c1Oc1nc(NC23CC(C#N)(C2)C3)nc2nc(-c3cncnc3)[nH]c12 [Compound 72, (E)-3-((6-(4-(2-cyanovinyl)-2,6-dimethylphenoxy)-8-(pyrimidin-5-yl)-7H-purin-2-yl)amino)bicyclo[1.1.1]pentane-1-carbonitrile]	308
Cc1cc(/C=C/C#N)cc(C)c1Oc1nc(NC23CC(C#N)(C2)C3)nc2nc(-c3ccno3)[nH]c12 [Compound 73, (E)-3-((6-(4-(2-cyanovinyl)-2,6-dimethylphenoxy)-8-(isoxazol-5-yl)-7H-purin-2-yl)amino)bicyclo[1.1.1]pentane-1-carbonitrile]	285
Cc1cc(/C=C/C#N)cc(C)c1Oc1nc(NC23CC(C#N)(C2)C3)nc2nn(-c3ccccc3)cc12 [Compound 74, (E)-3-((4-(4-(2-cyanovinyl)-2,6-dimethylphenoxy)-2-phenyl-2H-pyrazolo[3,4-d]pyrimidin-6-yl)amino)bicyclo[1.1.1]pentane-1-carbonitrile]	162
Cc1cc(/C=C/C#N)cc(C)c1Oc1nc(NC23CC(C#N)(C2)C3)nc2c1CCC2(F)F [Compound 79, (E)-3-((4-(4-(2-cyanovinyl)-2,6-dimethylphenoxy)-7,7-difluoro-6,7-dihydro-5H-cyclopenta[d]pyrimidin-2-yl)amino)bicyclo[1.1.1]pentane-1-carbonitrile]	33.2
Cc1cc(/C=C/C#N)cc(C)c1Oc1nc(NC23CC(C#N)(C2)C3)nc2nnn(C)c12 [Compound 81, (E)-3-((7-(4-(2-cyanovinyl)-2,6-dimethylphenoxy)-1-methyl-11H-[1,2,3]triazolo[4,5-d]pyrimidin-5-yl)amino)bicyclo[1.1.1]pentane-1-carbonitrile]	35.6
Cc1cc(/C=C/C#N)cc(C)c1Oc1nc(NC23CC(C#N)(C2)C3)nc2nn(C)nc12 [Compound 82, (E)-3-((7-(4-(2-cyanovinyl)-2,6-dimethylphenoxy)-2-methyl-2H-[1,2,3]triazolo[4,5-d]pyrimidin-5-yl)amino)bicyclo[1.1.1]pentane-1-carbonitrile]	79
Cc1cc(/C=C/C#N)cc(C)c1Oc1nc(NC23CC(C#N)(C2)C3)nc2nn(CC(F)F)c(C)c12 [Compound 83, (E)-3-((4-(4-(2-cyanovinyl)-2,6-dimethylphenoxy)-2-(2,2-difluoroethyl)-3-methyl-2H-pyrazolo[3,4-d]pyrimidin-6-yl)amino)bicyclo[11.1.1]pentane-1-carbonitrile]	162
Cc1cc(/C=C/C#N)cc(C)c1Oc1nc(NC23CC(C#N)(C2)C3)nc2nn(CC(F)(F)F)c(C)c12 [Compound 84, (E)-3-((4-(4-(2-cyanovinyl)-2,6-dimethylphenoxy)-3-methyl-2-(2,2,2-trifluoroethyl)-2H-pyrazolo[3,4-d]pyrimidin-6-yl)amino)bicyclo[1.1.1]pentane-1-carbonitrile]	370
Cc1cc(/C=C/C#N)cc(C)c1Oc1nc(NC23CC(C#N)(C2)C3)nc2nn(C)c(C)c12 [Compound 86, (E)-3-((4-(4-(2-cyanovinyl)-2,6-dimethylphenoxy)-2,3-dimethyl-2H-pyrazolo[3,4-d]pyrimidin-6-yl)amino)bicyclo[1.1.1]pentane-1-carbonitrile]	18.3
Cc1cc(/C=C/C#N)cc(C)c1Oc1nc(NC23CC(C#N)(C2)C3)nc2nn(C)c(I)c12 [Compound 87, (E)-3-((4-(4-(2-cyanovinyl)-2,6-dimethylphenoxy)-3-iodo-2-methyl-2H-pyrazolo[3,4-d]pyrimidin-6-yl)amino)bicyclo[1.1.1]pentane-1-carbonitrile]	25.1
C=Cc1c2c(Oc3c(C)cc(/C=C/C#N)cc3C)nc(NC34CC(C#N)(C3)C4)nc2nn1C [Compound 88, (E)-3-((4-(4-(2-cyanovinyl)-2,6-dimethylphenoxy)-2-methyl-3-vinyl-2H-pyrazolo[3,4-d]pyrimidin-6-yl)amino)bicyclo[1.1.1]pentane-1-carbonitrile]	23.4
Cc1cc(/C=C/C#N)cc(C)c1Oc1nc(NC23CC(C#N)(C2)C3)nc2[nH]nc(Br)c12 [Compound 90, (E)-3-((3-bromo-4-(4-(2-cyanovinyl)-2,6-dimethylphenoxy)-1H-pyrazolo[3,4-d]pyrimidin-6-yl)amino)bicyclo[1.1.1]pentane-1-carbonitrile]	25.4
Cc1cc(/C=C/C#N)cc(C)c1Oc1nc(NC23CC(C#N)(C2)C3)nc2[nH]nc(C(F)F)c12 [Compound 91, (E)-3-((4-(4-(2-cyanovinyl)-2,6-dimethylphenoxy)-3-(difluoromethyl)-1H-pyrazolo[3,4-d]pyrimidin-6-yl)amino)bicyclo[1.1.1]pentane-1-carbonitrile]	42.3
Cc1cc(/C=C/C#N)cc(C)c1Oc1nc(NC23CC(C#N)(C2)C3)nc2nn(C)c(C(F)F)c12 [Compound 92, (E)-3-((4-(4-(2-cyanovinyl)-2,6-dimethylphenoxy)-3-(difluoromethyl)-2-methyl-2H-pyrazolo[3,4-d]pyrimidin-6-yl)amino)bicyclo[1.1.1]pentane-1-carbonitrile]	26.3
Cc1cc(/C=C/C#N)cc(C)c1Oc1nc(NC23CC(C#N)(C2)C3)nc2c1c(C(F)F)nn2C [Compound 93, (E)-3-((4-(4-(2-cyanovinyl)-2,6-dimethylphenoxy)-3-(difluoromethyl)-1-methyl-1H-pyrazolo[3,4-d]pyrimidin-6-yl)amino)bicyclo[1.1.1]pentane-1-carbonitrile]	37.7
Cc1cc(/C=C/C#N)cc(C)c1Oc1nc(NC23CC(C#N)(C2)C3)nc2[nH]nc(Cl)c12 [Compound 94, (E)-3-((3-chloro-4-(4-(2-cyanovinyl)-2,6-dimethylphenoxy)-1H-pyrazolo[3,4-d]pyrimidin-6-yl)amino)bicyclo[1.1.1]pentane-1-carbonitrile]	72.5
CNC(=O)Cn1nc2nc(NC34CC(C#N)(C3)C4)nc(Oc3c(C)cc(/C=C/C#N)cc3C)c2c1C [Compound 98, (E)-2-(6-((3-cyanobicyclo[1.1.1]pentan-1-yl)amino)-4-(4-(2-cyanovinyl)-2,6-dimethylphenoxy)-3-methyl-2H-214-pyrazolo[3,4-d]pyrimidin-2-yl)-N-methylacetamide]	94.3
CNC(=O)Cn1nc(C)c2c(Oc3c(C)cc(/C=C/C#N)cc3C)nc(NC34CC(C#N)(C3)C4)nc21 [Compound 99, (E)-2-(6-((3-cyanobicyclo[1.1.1]pentan-1-yl)amino)-4-(4-(2-cyanovinyl)-2,6-dimethylphenoxy)-3-methyl-1H-pyrazolo[3,4-d]pyrimidin-1-yl)-N-methylacetamide]	37.1
Cc1cc(/C=C/C#N)cc(C)c1Oc1nc(NC23CC(C#N)(C2)C3)nc2c1c(C)nn2CC#N [Compound 100, (E)-3-((1-(cyanomethyl)-4-(4-(2-cyanovinyl)-2,6-dimethylphenoxy)-3-methyl-11H-pyrazolo[3,4-d]pyrimidin-6-yl)amino)bicyclo[1.1.1]pentane-1-carbonitrile]	36.1
